Assay results taken from BigSolDB 2.1.

Cc1ccccc1S(N)(=O)=O
solubility (mole fraction)
Conditions | 283.15 K | 288.15 K | 293.15 K | 298.15 K | 303.15 K | 308.15 K | 313.15 K | 318.15 K
in acetonitrile | 0.0337 | 0.0375 | 0.0423 | 0.0475 | 0.0534 | 0.0597 | 0.0669 | 0.0737
in ethanol | 0.0242 | 0.0266 | 0.0293 | 0.0321 | 0.035 | 0.0384 | 0.042 | 0.0456
in ethyl acetate | 0.0497 | 0.053 | 0.0566 | 0.0604 | 0.0644 | 0.0687 | 0.0729 | 0.0775
in isopropanol | 0.0198 | 0.022 | 0.0246 | 0.0276 | 0.0305 | 0.0337 | 0.0374 | 0.0414
in methanol | 0.0277 | 0.0305 | 0.0341 | 0.0378 | 0.0425 | 0.0473 | 0.0526 | 0.0579
in n-butanol | 0.0209 | 0.0232 | 0.0257 | 0.0286 | 0.0316 | 0.0348 | 0.0382 | 0.0421
in n-propanol | 0.0226 | 0.0249 | 0.0274 | 0.0301 | 0.0331 | 0.0361 | 0.0394 | 0.0427

Cc1ccc(S(N)(=O)=O)cc1
solubility (mole fraction)
Conditions | 283.15 K | 288.15 K | 293.15 K | 298.15 K | 303.15 K | 308.15 K | 313.15 K | 318.15 K
in acetonitrile | 0.078 | 0.0848 | 0.0955 | 0.106 | 0.118 | 0.13 | 0.143 | 0.159
in ethanol | 0.0344 | 0.0392 | 0.0448 | 0.0524 | 0.0608 | 0.0701 | 0.0801 | 0.0914
in ethyl acetate | 0.0728 | 0.0786 | 0.0859 | 0.0946 | 0.104 | 0.114 | 0.123 | 0.133
in isopropanol | 0.0203 | 0.0232 | 0.0267 | 0.0306 | 0.0347 | 0.0392 | 0.0445 | 0.0509
in methanol | 0.0441 | 0.0505 | 0.0569 | 0.0648 | 0.073 | 0.0827 | 0.0932 | 0.104
in n-butanol | 0.0242 | 0.028 | 0.0316 | 0.0358 | 0.0403 | 0.0452 | 0.0501 | 0.0565
in n-propanol | 0.0272 | 0.0313 | 0.0358 | 0.0415 | 0.047 | 0.0542 | 0.0611 | 0.0689
